In the supplement of paper PMC10307832:

Legend:
Assay in all cases: relative viability (nuclei count vs DMSO), 5 days (fraction); higher = more cells survive
NCI-H596 = test system: NCI-H596
Outline: (§1)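 Lung cancer cell lines in 1536-well plates were dosed by pin tool the day after seeding, either with one drug alone or with a fixed anchor-drug dose plus five library-drug doses (not always all listed) in √10 steps. After 5 days, cells were fixed and their nuclei stained in one step (final 0.05% Triton X-100, 1% formaldehyde, 1 ug/ml Hoechst), then counted on 4× images. Relative viability is the nuclei count in treated wells divided by that in vehicle wells. Values are medians of duplicate plates.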

A549 = test system: A549
Outline: as §1

EBC-1 = test system: EBC-1
Outline: as §1

IA-LM = test system: IA-LM
Outline: as §1

NCI-H1703 = test system: NCI-H1703
Outline: as §1

SK-LU-1 = test system: SK-LU-1
Outline: as §1

PC-14 = test system: PC-14
Outline: as §1

NCI-H1299 = test system: NCI-H1299
Outline: as §1

NCI-H1944 = test system: NCI-H1944
Outline: as §1

NCI-H1666 = test system: NCI-H1666
Outline: as §1

NCI-H661 = test system: NCI-H661
Outline: as §1

Calu-6 = test system: Calu-6
Outline: as §1

NCI-H1623 = test system: NCI-H1623
Outline: as §1

## CN1CCN(CCOc2cc(OC3CCOCC3)c3c(Nc4c(Cl)ccc5c4OCO5)ncnc3c2)CC1 [Saracatinib] + COc1cc2c(Oc3ccc(NC(=O)C4(C(=O)Nc5ccc(F)cc5)CC4)cc3F)ccnc2cc1OCCCN1CCOCC1 [Foretinib] (partner 0.25 µM)
NCI-H596; first compound 0.02 µM
  relative viability: 0.874
NCI-H596; first compound 0.2 µM
  relative viability: 0.641
NCI-H596; first compound 0.6325 µM
  relative viability: 0.826
NCI-H596; first compound 2 µM
  relative viability: 0.591
A549; first compound 0.02 µM
  relative viability: 0.864
A549; first compound 0.6325 µM
  relative viability: 0.8
A549; first compound 2 µM
  relative viability: 0.841
EBC-1; first compound 0.02 µM
  relative viability: 0.0938
EBC-1; first compound 0.2 µM
  relative viability: 0.111
EBC-1; first compound 0.6325 µM
  relative viability: 0.108
EBC-1; first compound 2 µM
  relative viability: 0.106
IA-LM; first compound 0.02 µM
  relative viability: 1.13
IA-LM; first compound 0.2 µM
  relative viability: 1.28
IA-LM; first compound 0.6325 µM
  relative viability: 1.01
IA-LM; first compound 2 µM
  relative viability: 0.912
NCI-H1703; first compound 0.02 µM
  relative viability: 0.38
NCI-H1703; first compound 0.2 µM
  relative viability: 0.319
NCI-H1703; first compound 0.6325 µM
  relative viability: 0.251
NCI-H1703; first compound 2 µM
  relative viability: 0.259
SK-LU-1; first compound 0.02 µM
  relative viability: 0.602
SK-LU-1; first compound 0.2 µM
  relative viability: 0.51
SK-LU-1; first compound 0.6325 µM
  relative viability: 0.415
SK-LU-1; first compound 2 µM
  relative viability: 0.298
PC-14; first compound 0.02 µM
  relative viability: 0.986
PC-14; first compound 0.2 µM
  relative viability: 0.721
PC-14; first compound 0.6325 µM
  relative viability: 0.612
PC-14; first compound 2 µM
  relative viability: 0.209
NCI-H1299; first compound 0.02 µM
  relative viability: 1.11
NCI-H1299; first compound 0.2 µM
  relative viability: 1.08
NCI-H1299; first compound 0.6325 µM
  relative viability: 1.21
NCI-H1299; first compound 2 µM
  relative viability: 1.14
NCI-H1944; first compound 0.02 µM
  relative viability: 0.868
NCI-H1944; first compound 0.6325 µM
  relative viability: 0.935
NCI-H1944; first compound 2 µM
  relative viability: 0.549
NCI-H1666; first compound 0.02 µM
  relative viability: 1.04
NCI-H1666; first compound 0.2 µM
  relative viability: 0.836
NCI-H1666; first compound 0.6325 µM
  relative viability: 1.27
NCI-H1666; first compound 2 µM
  relative viability: 1.14
NCI-H661; first compound 0.02 µM
  relative viability: 1.02
NCI-H661; first compound 0.2 µM
  relative viability: 0.948
NCI-H661; first compound 0.6325 µM
  relative viability: 0.993
NCI-H661; first compound 2 µM
  relative viability: 0.45
Calu-6; first compound 0.02 µM
  relative viability: 0.813
Calu-6; first compound 0.2 µM
  relative viability: 0.579
Calu-6; first compound 0.6325 µM
  relative viability: 0.684
Calu-6; first compound 2 µM
  relative viability: 0.581
NCI-H1623; first compound 0.02 µM
  relative viability: 0.876
NCI-H1623; first compound 0.2 µM
  relative viability: 0.723
NCI-H1623; first compound 0.6325 µM
  relative viability: 0.908
NCI-H1623; first compound 2 µM
  relative viability: 0.681

## CN1CCN(CCOc2cc(OC3CCOCC3)c3c(Nc4c(Cl)ccc5c4OCO5)ncnc3c2)CC1 [Saracatinib] + Cc1nc(Nc2ncc(C(=O)Nc3c(C)cccc3Cl)s2)cc(N2CCN(CCO)CC2)n1 [Dasatinib] (partner 0.075 µM)
NCI-H596; first compound 0.02 µM
  relative viability: 0.558
NCI-H596; first compound 0.2 µM
  relative viability: 0.659
NCI-H596; first compound 0.6325 µM
  relative viability: 0.607
NCI-H596; first compound 2 µM
  relative viability: 0.57
SK-LU-1; first compound 0.02 µM
  relative viability: 0.148
SK-LU-1; first compound 0.2 µM
  relative viability: 0.14
SK-LU-1; first compound 0.6325 µM
  relative viability: 0.138
SK-LU-1; first compound 2 µM
  relative viability: 0.146
PC-14; first compound 0.02 µM
  relative viability: 0.211
PC-14; first compound 0.2 µM
  relative viability: 0.127
PC-14; first compound 0.6325 µM
  relative viability: 0.0455
PC-14; first compound 2 µM
  relative viability: 0.0398
NCI-H1944; first compound 0.02 µM
  relative viability: 0.219
NCI-H1944; first compound 0.6325 µM
  relative viability: 0.182
NCI-H1944; first compound 2 µM
  relative viability: 0.181
NCI-H1666; first compound 0.02 µM
  relative viability: 0.772
NCI-H1666; first compound 0.2 µM
  relative viability: 0.87
NCI-H1666; first compound 0.6325 µM
  relative viability: 0.967
NCI-H1666; first compound 2 µM
  relative viability: 0.875
NCI-H661; first compound 0.02 µM
  relative viability: 0.891
NCI-H661; first compound 0.2 µM
  relative viability: 0.797
NCI-H661; first compound 0.6325 µM
  relative viability: 0.817
NCI-H661; first compound 2 µM
  relative viability: 0.528
NCI-H1623; first compound 0.02 µM
  relative viability: 0.562
NCI-H1623; first compound 0.2 µM
  relative viability: 0.416
NCI-H1623; first compound 0.6325 µM
  relative viability: 0.468
NCI-H1623; first compound 2 µM
  relative viability: 0.406

## CN1CCN(CCOc2cc(OC3CCOCC3)c3c(Nc4c(Cl)ccc5c4OCO5)ncnc3c2)CC1 [Saracatinib] + N=C(N)NC(=N)NCCc1ccccc1 [Phenformin] (partner 250 µM)
NCI-H596; first compound 0.02 µM
  relative viability: 0.845
NCI-H596; first compound 0.2 µM
  relative viability: 0.625
NCI-H596; first compound 0.6325 µM
  relative viability: 0.689
NCI-H596; first compound 2 µM
  relative viability: 0.67
A549; first compound 0.02 µM
  relative viability: 0.161
A549; first compound 0.2 µM
  relative viability: 0.121
A549; first compound 0.6325 µM
  relative viability: 0.156
A549; first compound 2 µM
  relative viability: 0.154
SK-LU-1; first compound 0.02 µM
  relative viability: 0.474
SK-LU-1; first compound 0.2 µM
  relative viability: 0.351
SK-LU-1; first compound 0.6325 µM
  relative viability: 0.25
SK-LU-1; first compound 2 µM
  relative viability: 0.209
PC-14; first compound 0.02 µM
  relative viability: 0.646
PC-14; first compound 0.2 µM
  relative viability: 0.441
PC-14; first compound 0.6325 µM
  relative viability: 0.256
PC-14; first compound 2 µM
  relative viability: 0.124
NCI-H1944; first compound 0.02 µM
  relative viability: 0.227
NCI-H1944; first compound 0.6325 µM
  relative viability: 0.161
NCI-H1944; first compound 2 µM
  relative viability: 0.141
NCI-H1666; first compound 0.02 µM
  relative viability: 0.562
NCI-H1666; first compound 0.2 µM
  relative viability: 0.566
NCI-H1666; first compound 0.6325 µM
  relative viability: 0.642
NCI-H1666; first compound 2 µM
  relative viability: 0.588
NCI-H661; first compound 0.02 µM
  relative viability: 0.282
NCI-H661; first compound 0.2 µM
  relative viability: 0.271
NCI-H661; first compound 0.6325 µM
  relative viability: 0.233
NCI-H661; first compound 2 µM
  relative viability: 0.236
NCI-H1623; first compound 0.02 µM
  relative viability: 0.619
NCI-H1623; first compound 0.2 µM
  relative viability: 0.53
NCI-H1623; first compound 0.6325 µM
  relative viability: 0.297
NCI-H1623; first compound 2 µM
  relative viability: 0.395
